Values belong to the compound of their own block, whether it stands above or below them. No end group written: not given here.
Key:
PAK4 = details: binds in vitro; ATP-competitive; cited from earlier work
Method: As the Flag-iBox-PAK4 crystal structure contained bound ATP, which is stabilized by the Inka1 inhibitory peptide (Fig. 3a), we were interested on the effect of the ATP-competitive PAK4 inhibitor PF-03758309, which binds with 10 nM affinity in vitro[45]. […] Thus, PF-03758309 appears to allow PAK4cat to incorporate with sub-stoichiometric levels of GFP–Inka1, consistent with PF-03758309 either reducing the affinity of GFP–Inka1 or allowing PAK4cat inco ...

[1] = system: GFP–Inka1:PAK4cat co-crystals; assay: Live imaging of growing GFP-Inka1:PAK4cat crystals, effect of PF-03758309; format: cell-based
Method: Live cell imaging of crystal growth and SIM and confocal microscopy
The cells were plated at 50% confluence glass cover slips overnight: plasmid transfection used GFP–iBox–Pak4cat and FLAG–iBox–Pak4cat constructs at a ratio of 4:1, to promote crystal nucleation. The cover slips were transferred to a Chamlide magnetic chamber (Live Cell Instruments, Seoul, Korea) with 5% CO2 at 37 °C for live imaging on an Zeiss Axiovert 200 M live-cell imaging with a × 10 objective. We imaged multiple chosen regions for 8 h at 6-min intervals. To measure crystal growth rate, we used instead a Nikon Eclipse Ti microscope equipped with spinning disk confocal attachment (Yokogawa CSU-22 module) to avoid photo-damage. The cells were imaged at × 60 1.4 numerical aperture (NA) objective at 2-min intervals. For SIM and confocal imaging, cells were fixed in non-hardening mounting media (Vectashield). The slides were imaged by Delta vision OMX SIM with a × 100 1.4 NA objective. […] The three-dimensional stacks were analysed by IMARIS software.

PAK4cat [2] = molecular target: T1, PAK4cat (Homo sapiens, UniProt O96013); assay: In-vitro kinase assay, PAK4cat (phosphorylation of GST-Raf13); format: biochemical; set-up: PAK1 (1–545) and PAK4 (286–591), respectively; 6His (N); made in house; host or cells: Escherichia coli BL21-CodonPlus(DE3); details: Fig. 1d; n=3; IC50 from intercepts of the graphs; PAK 50 nM, 10 μM GST-Raf1S338, 10 μM ATP (γ32P), pH 7.3, 30 °C 20 min; peptide preincubated on ice 10 min
Method: Purified PAK1 or PAK4 (50 nM in 25–50 μl) were incubated with 10 μM GST-Raf1S338 peptide in 10 μM ATP (2 μCi of γ32P ATP) of kinase buffer (25 mM HEPES, pH 7.3, 0.1% Triton X-100, 50 mM KCl, 10 mM MgCl2, 1 mM dithiothreitol) at 30 °C for 20 min. Samples were analysed by SDS–PAGE or adsorption of the GST substrate mix onto polyvinylidene difluoride membranes, followed by extensive washing to remove free γ32P-ATP. The synthetic peptides of 95% purity, as determined by HPLC and mass spectrometric analyses (GenScript), were soluble in aqueous PBS. Stock solutions (10 mM) were quantified via calculated extinction coefficients and absorbance measurements at 280 nm and stored at −80 °C. The diluted peptides were incubated at the indicated concentrations with the kinase on ice (10 min) before addition of γ32P ATP and subsequent incubation at 30 °C. The synthetic peptide array (Jerini Biotools) was phosphorylated in situ as described previously.

PAK4cat [3] = molecular target: T1, PAK4cat; assay: In-cellulo crystal formation with PAK4cat; format: cell-based; set-up: PAK4 (286–591); details: transfected mammalian cells
Method: Generation and harvesting of intracellular PAK4 crystals
COS-7, HeLa, HEK293 or U2OS cells (35-mm culture dish or glass coverslip) were typically transfected with 2.5 μg of each plasmid in 2 ml of media using Lipofectamine 2000 (Invitrogen) or the GenomeONE Neo EX haemagglutinating virus of Japan envelope transfection kit (Cosmo Bio Co. Ltd) as per the manufacturer's protocol. Crystals were observed by phase-contrast microscopy using a × 10 objective (Nikon Eclipse TE300) 1–4 days post transfection. The structure of Flag–iBox–PAK4cat (Figs 2 and 3) was determined from crystals grown in COS-7 cells. The cells were harvested 3 days after transfection by incubating in PBS with 0.125% (w/v) trypsin and 25% (v/v) glycerol (Merck) for 30 min. Individual cells containing single crystals were then mounted in 0.1–0.2 mm cryoloops (Hampton Research) and flash cooled in liquid nitrogen.

T1 sequence (O96013 286-591): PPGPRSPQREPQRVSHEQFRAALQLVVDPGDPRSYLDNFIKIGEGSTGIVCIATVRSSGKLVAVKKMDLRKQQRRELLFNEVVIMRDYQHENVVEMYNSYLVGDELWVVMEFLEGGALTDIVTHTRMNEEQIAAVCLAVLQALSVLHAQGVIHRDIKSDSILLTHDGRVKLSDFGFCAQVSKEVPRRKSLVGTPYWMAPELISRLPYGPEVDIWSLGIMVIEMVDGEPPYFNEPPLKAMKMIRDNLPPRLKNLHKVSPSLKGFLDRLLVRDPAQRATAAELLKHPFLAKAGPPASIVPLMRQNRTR

Compound: Cc1nc(Nc2[nH]nc3c2CN(C(=O)N[C@H](CN(C)C)c2ccccc2)C3(C)C)c2sccc2n1 [PF-03758309]
affinity (PAK4): 10 nM
Effect on crystal GFP signal, in words ([1]; 5 μM PF-03758309, elongation phase): depleted of GFP signal
Effect on crystal growth rate, in words ([1]; after PF3758309 addition (5 μM), Fig. 6d): Crystal growth slowed

IC50 (PAK4cat [2]): 5 µM
Compound: RGRSRQPLVLGDNC [iBox14]

Compound: Inka1 (255–285): C-terminal 31 amino acid of Inka1 (RPEPELPADVSRFAALMSCRSRQPIICNDVS; UniProt Q96EL1 255-285, looked up, fragment)
Induction of intracellular crystals with PAK4cat, in words (PAK4cat [3]): able to induce crystals more efficiently than the Inka1 (166–203)
